Consider 4 compounds from US9988430B2, “Stable GLP-1 based GLP-1/glucagon receptor co-agonists” (Novo Nordisk A/S, priority 2014, dated 2018).

*1 amine or outer side, *2 acyl side, *3 side chain or, on linkers, in order; H or OH if unused. Where a SMILES comes first, the peptide text is derived from it. Side-chain parts run from the residue outwards. [ ]: non-standard residue; d: D form. The star is where a group is joined. C20 diacid = O=C(O)CCCCCCCCCCCCCCCCCCC(=O)*; C18 diacid = O=C(O)CCCCCCCCCCCCCCCCC(=O)*; γGlu = O=C(O)[C@H](CCC(=O)[*:2])N[*:1]; Desaminohistidyl = O=C(CCc1c[nH]cn1)*; Ac4c = NC1(C(=O)O)CCC1; AEEA = NCCOCCOCC(=O)O; Aib = CC(C)(N)C(=O)O

By IC50 is commonly meant the concentration that gives 50% inhibition.

T1 sequence (P43220 24-463): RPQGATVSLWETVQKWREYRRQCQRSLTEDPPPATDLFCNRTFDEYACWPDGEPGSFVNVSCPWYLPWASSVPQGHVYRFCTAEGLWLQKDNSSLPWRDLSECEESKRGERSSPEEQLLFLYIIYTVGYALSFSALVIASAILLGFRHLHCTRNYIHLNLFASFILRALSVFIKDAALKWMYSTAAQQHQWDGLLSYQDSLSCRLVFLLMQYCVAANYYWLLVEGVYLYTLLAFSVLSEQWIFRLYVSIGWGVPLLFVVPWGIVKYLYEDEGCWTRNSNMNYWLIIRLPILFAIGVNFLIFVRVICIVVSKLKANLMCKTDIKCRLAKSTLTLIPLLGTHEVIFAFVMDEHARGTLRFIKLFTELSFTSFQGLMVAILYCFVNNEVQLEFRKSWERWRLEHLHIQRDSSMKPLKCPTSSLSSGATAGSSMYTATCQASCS

This experiment has as its target T1, human GLP-1 receptor (Homo sapiens, UniProt P43220).
T1 construct: expressed in transfected cells; host or cells: membranes of BHK cells, parent line BHKTS13, clone FCW467-12A
The experiment can be described thus: Assay (II)(a): GLP-1 receptor binding, [125I]GLP-1 displacement, SPA on BHK membranes. The conditions noted are these: displacement of [125I]GLP-1, membranes with human GLP-1 receptor; read-out: IC50 GLP-1R. The method, then: Assay (II): GLP-1 and Glucagon Receptor Binding The purpose of this assay is to test the in vitro receptor binding activity of the GLP-1 derivatives of the invention. (a) GLP-1 Receptor Binding The GLP-1 receptor (GLP-1R) binding is a measure of the affinity of a derivative for the human GLP-1 receptor. The GLP-1 receptor binding of each derivatives were determined with competitive binding, displacing [^125I]GLP-1 bound to GLP-1 receptors expressed in cell membranes associated with wheat germ agglutinin (WGA) scintillation proximity assay (SPA) beads. Each derivative was added in a series of concentrations to isolated membranes comprising the human GLP-1 receptor and displacement of the labelled radioligand was monitored. The receptor binding was reported as the concentration at which half of the labelled ligand is displaced from the receptor, the IC^50 value. The following chemicals were used in the assay: MEM w/o phenol red (Gibco 11880-028), Pen/strep (Invitrogen 15140-122), G418 (Invitrogen 10131-027), 1 M Hepes (Gibco 15630), EDTA (Invitrogen 15575-038), PBS (Invitrogen 14190-094), fetal calf serum (Invitrogen 16140-071), EGTA, MgCl2 (Merck 1.05832.1000), Tween 20 (Amresco 0850C335), SPA particles (wheat germ agglutinin (WGA) SPA beads, Perkin Elmer RPNQ0001), [125I]-GLP-1]-(7-36)NH2 (produced in-house), OptiPlate™-96 (Perkin Elmer). Buffer 1 consisted of 20 mM Na-HEPES plus 10 mM EDTA and pH was adjusted to 7.4. Buffer 2 consisted of 20 mM Na-HEPES plus 0.1 mM EDTA and pH was adjusted to 7.4. Assay buffer consisted of 50 mM HEPES supplemented with 5 mM EGTA, 5 mM MgCl2, 0.005% Tween 20 and pH was adjusted to 7.4. A 0.02% albumin stock consisted of HSA dissolved at 0.02% (w/v) in assay buffer. The cells used in this assay (clone FCW467-12A) were BHK cells with BHKTS13 as a parent cell line. The cells express the human GLP-1 receptor. The cells were grown at 5% CO2 in DMEM, 10% fetal calf serum, 1% Pen/Strep (Penicillin/Streptomycin) and 1.0 mg/ml of the selection marker G418. To make a membrane preparation the cells were grown to approximately 80% confluence. The cells were washed twice in phosphate-buffered saline and harvested. The cells were pelleted using a brief centrifugation and the cell pellet was kept on ice. The cell pellet was homogenised with ULTRA-THURRAX dispersing instrument for 20-30 seconds in a suitable amount of buffer 1 (e.g., 10 ml). The homogenate was centrifuged for 15 minutes. The pellet was re-suspended (homogenised) in 10 ml buffer 2 and centrifuged. This step was repeated once more. The resulting pellet was re-suspended in buffer 2 and the protein concentration was determined. The membranes were aliquoted and stored at minus 80° C. • 1. For the receptor binding assay 50 μl of the assay buffer was added to each well of an assay plate. • 2. Test compounds were serially diluted to give the following concentrations: 8×10EE-7 M, 8×10EE-8 M, 8×10EE-9 M, 8×10EE-10 M, 8×10EE-11 M, 8×10EE-12 M and 8×10EE-13 M. Twenty-five μl were added to appropriate wells in the assay plate. • 3. Cell membrane aliquots were thawed and diluted to their working concentration. Fifty μl were added to each well in the assay plate. • 4. WGA SPA beads were suspended in assay buffer at 20 mg/ml. The suspension was diluted to 10 mg/ml in assay buffer just prior to addition to the assay plate. Fifty μl were added to each well in the assay plate. • 5. The incubation was started by adding 25 μl of 480 pM solution of [125I]-GLP-1]-(7-36)NH2 to each well of the assay plate. A 25 μl aliquot was reserved for measuring total counts/well. • 6. The assay plate was incubated for 2 h at 30° C. • 7. The assay plate was centrifuged for 10 min. • 8. The assay plate was read in a Perkin Elmer TopCount NXT instrument. Calculations The data from the TopCount instrument were transferred to GraphPad Prism software. The software averaged the values for the replicates and performed a non-linear regression. IC50 values were calculated by the software and reported in nM. […]
Background: Loss of bound radioactivity is the signal in a displacement assay; it reports binding, not function.
On to `CC[C@H](C)[C@H](NC(=O)[C@H](Cc1ccccc1)NC(=O)[C@H](CCC(=O)O)NC(=O)[C@H](CCCNC(=N)N)NC(=O)[C@H](C)NC(=O)[C@H](C)NC(=O)[C@H](CCCNC(=N)N)NC(=O)[C@H](CCCCNC(=O)CC[C@H](NC(=O)CC[C@H](NC(=O)COCCOCCNC(=O)COCCOCCNC(=O)CC[C@H](NC(=O)CCCCCCCCCCCCCCCCC(=O)O)C(=O)O)C(=O)O)C(=O)O)NC(=O)[C@H](CCC(=O)O)NC(=O)[C@H](CC(C)C)NC(=O)[C@H](Cc1ccc(O)cc1)NC(=O)[C@H](CCCCN)NC(=O)[C@H](CO)NC(=O)[C@@H](NC(=O)[C@H](CC(=O)O)NC(=O)[C@H](CO)NC(=O)[C@@H](NC(=O)[C@H](Cc1ccccc1)NC(=O)[C@@H](NC(=O)CNC(=O)[C@H](Cc1c[nH]cn1)NC(=O)C1(NC(=O)CCc2c[nH]cn2)CCC1)[C@@H](C)O)[C@@H](C)O)C(C)C)C(=O)N[C@@H](C)C(=O)N[C@@H](Cc1c[nH]c2ccccc12)C(=O)N[C@@H](CC(C)C)C(=O)N[C@@H](CC(C)C)C(=O)N[C@@H](CCCCN)C(=O)N[C@H](C(N)=O)[C@@H](C)O` [Example 32, N^ε22-[(4S)-4-carboxy-4-[[(4S)-4-carboxy-4-[[2-[2-[2-[[2-[2-[2-[[(4S)-4-carboxy-4-(17-carboxyheptadecanoylamino)butanoyl]amino]ethoxy]ethoxy]acetyl]amino]ethoxy]ethoxy]acetyl]amino]butanoyl]amino]butanoyl]-[Imp7,Acb8,His9,Lys18,Lys22,Arg23,Arg26,Leu33,Thr35]-GLP-1-(7-35)-peptide amide] (Desaminohistidyl-[Ac4c]HGTFTSDVSKYLEK([γGlu-γGlu-AEEA-AEEA-γGlu-C18 diacid])RAAREFIAWLLKT-NH2), for which the IC50 was found to be 0.2 nM.

Regarding `CC[C@H](C)[C@H](NC(=O)[C@H](Cc1ccccc1)NC(=O)[C@H](CCC(=O)O)NC(=O)[C@H](CCCNC(=N)N)NC(=O)[C@H](C)NC(=O)[C@H](C)NC(=O)[C@H](CCC(N)=O)NC(=O)[C@H](CCCCNC(=O)CC[C@H](NC(=O)CC[C@H](NC(=O)COCCOCCNC(=O)COCCOCCNC(=O)CC[C@H](NC(=O)CCCCCCCCCCCCCCCCC(=O)O)C(=O)O)C(=O)O)C(=O)O)NC(=O)[C@H](CCC(=O)O)NC(=O)[C@H](CC(C)C)NC(=O)[C@H](Cc1ccc(O)cc1)NC(=O)[C@H](CCCCN)NC(=O)[C@H](CO)NC(=O)[C@@H](NC(=O)[C@H](CC(=O)O)NC(=O)[C@H](CO)NC(=O)[C@@H](NC(=O)[C@H](Cc1ccccc1)NC(=O)[C@@H](NC(=O)CNC(=O)[C@H](Cc1c[nH]cn1)NC(=O)C1(NC(=O)CCc2c[nH]cn2)CCC1)[C@@H](C)O)[C@@H](C)O)C(C)C)C(=O)N[C@@H](C)C(=O)N[C@@H](Cc1c[nH]c2ccccc12)C(=O)N[C@@H](CC(C)C)C(=O)N[C@@H](CC(C)C)C(=O)N[C@@H](CCCCN)C(=O)N[C@H](C(N)=O)[C@@H](C)O` [Example 33, N^ε22-[(4S)-4-carboxy-4-[[(4S)-4-carboxy-4-[[2-[2-[2-[[2-[2-[2-[[(4S)-4-carboxy-4-(17-carboxyheptadecanoylamino)butanoyl]amino]ethoxy]ethoxy]acetyl]amino]ethoxy]ethoxy]acetyl]amino]butanoyl]amino]butanoyl]-[Imp7,Acb8,His9,Lys18,Lys22,Arg26,Leu33,Thr35]-GLP-1-(7-35)-peptide amide] (Desaminohistidyl-[Ac4c]HGTFTSDVSKYLEK([γGlu-γGlu-AEEA-AEEA-γGlu-C18 diacid])QAAREFIAWLLKT-NH2), the half-inhibitory concentration (IC50) turned out to be 0.2 nM.

Consider `CC[C@H](C)[C@H](NC(=O)[C@H](Cc1ccccc1)NC(=O)[C@H](CCC(=O)O)NC(=O)[C@H](CCCNC(=N)N)NC(=O)[C@H](C)NC(=O)[C@H](C)NC(=O)[C@H](CCC(N)=O)NC(=O)[C@H](CCC(=O)O)NC(=O)[C@H](CCC(=O)O)NC(=O)[C@H](CC(C)C)NC(=O)[C@H](Cc1ccc(O)cc1)NC(=O)[C@H](CCCCN)NC(=O)[C@H](CO)NC(=O)[C@@H](NC(=O)[C@H](CC(=O)O)NC(=O)[C@H](CO)NC(=O)[C@@H](NC(=O)[C@H](Cc1ccccc1)NC(=O)[C@@H](NC(=O)CNC(=O)[C@H](Cc1c[nH]cn1)NC(=O)C(C)(C)NC(=O)CCc1c[nH]cn1)[C@@H](C)O)[C@@H](C)O)C(C)C)C(=O)N[C@@H](C)C(=O)N[C@@H](Cc1c[nH]c2ccccc12)C(=O)N[C@@H](CC(C)C)C(=O)N[C@@H](CC(C)C)C(=O)N[C@@H](CCCCNC(=O)COCCOCCNC(=O)COCCOCCNC(=O)CC[C@H](NC(=O)CC[C@H](NC(=O)CCCCCCCCCCCCCCCCCCC(=O)O)C(=O)O)C(=O)O)C(=O)N[C@H](C(N)=O)[C@@H](C)O` [Example 40, N^ε34-[2-[2-[2-[[2-[2-[2-[[(4S)-4-carboxy-4-[[(4S)-4-carboxy-4-(19-carboxynonadecanoylamino)butanoyl]amino]butanoyl]amino]ethoxy]ethoxy]acetyl]amino]ethoxy]ethoxy]acetyl]-[Imp7,Aib8,His9,Lys18,Glu22,Arg26,Leu33,Thr35]-GLP-1-(7-35)-peptide amide] (Desaminohistidyl-[Aib]HGTFTSDVSKYLEEQAAREFIAWLLK([AEEA-AEEA-γGlu-γGlu-C20 diacid])T-NH2), for which the IC50 worked out at 0.4 nM.

`CC[C@H](C)[C@H](NC(=O)[C@H](Cc1ccccc1)NC(=O)[C@H](CCC(=O)O)NC(=O)[C@H](CCCNC(=N)N)NC(=O)[C@H](C)NC(=O)[C@H](C)NC(=O)[C@H](CCC(N)=O)NC(=O)[C@H](CCC(=O)O)NC(=O)[C@H](CCC(=O)O)NC(=O)[C@H](CC(C)C)NC(=O)[C@H](Cc1ccc(O)cc1)NC(=O)[C@H](CCCCN)NC(=O)[C@H](CO)NC(=O)[C@@H](NC(=O)[C@H](CC(=O)O)NC(=O)[C@H](CO)NC(=O)[C@@H](NC(=O)[C@H](Cc1ccccc1)NC(=O)[C@@H](NC(=O)CNC(=O)[C@H](Cc1c[nH]cn1)NC(=O)C(C)(C)NC(=O)CCc1c[nH]cn1)[C@@H](C)O)[C@@H](C)O)C(C)C)C(=O)N[C@@H](C)C(=O)N[C@@H](Cc1c[nH]c2ccccc12)C(=O)N[C@@H](CC(C)C)C(=O)N[C@H](C(=O)N[C@@H](CCCCNC(=O)COCCOCCNC(=O)COCCOCCNC(=O)CC[C@H](NC(=O)CC[C@H](NC(=O)CCCCCCCCCCCCCCCCC(=O)O)C(=O)O)C(=O)O)C(=O)N[C@H](C(N)=O)[C@@H](C)O)[C@@H](C)CC` [Example 42, N^ε34-[2-[2-[2-[[2-[2-[2-[[(4S)-4-carboxy-4-[[(4S)-4-carboxy-4-(17-carboxyheptadecanoylamino)butanoyl]amino]butanoyl]amino]ethoxy]ethoxy]acetyl]amino]ethoxy]ethoxy]acetyl]-[Imp7,Aib8, His9,Lys18,Glu22,Arg26,Ile33,Thr35]-GLP-1-(7-35)-peptide amide] (Desaminohistidyl-[Aib]HGTFTSDVSKYLEEQAAREFIAWLIK([AEEA-AEEA-γGlu-γGlu-C18 diacid])T-NH2): the IC50 was determined as 0.2 nM.
